The test system of one assay is DU145 cells. Put plainly: confocal Raman imaging of cells. In kind it is cell-based. To be noted: 100 µM, 3 h, then fresh media 30 min; fixed cells; DU145, legumain overexpressing. As for the experimental part: (§1) Raman measurements were performed on cells cultured on quartz slides. Cells were incubated with 100 µM nanoSABER probe solution for 3 h, then fresh media was added and incubation was continued for an extra 30 min. Subsequently, the cells were washed three times with phosphate‐buffered saline (PBS), fixed with 4% paraformaldehyde (PFA) for 20 min, and washed with PBS again. Finally, cells were imaged using a confocal Raman microscope. Cell boundaries were constructed using the Raman peak at 1440 cm^−1 characteristic of intrinsic cellular signals.^[ [29] ^] […] These spectral features indicate legumain‐mediated intracellular self‐assembly of nanoSABER into alkyne‐dimer nanoparticles in DU145 cells. The Raman mapping results were consistent with our in vitro solution‐based measurements (Figure 2f) where the nitrile peak diminished after the formation of alkyne‐dimer.
(§2) Raman spectra of all synthesized peptides were acquired using a 785 nm laser and a 50× objective. The acquisition time was 10 s with 5 repetitions. All spectra were processed using custom‐written scripts in MATLAB for a tenth‐order least‐squares polynomial baseline correction with a moving window of 50. All Raman cellular imaging maps were acquired using 785 nm laser excitation and a 60× water immersion objective. For each acquisition time, the number of accumulations were 6 s and 8 acquisitions, respectively. For sample preparation, 1 × 10^5 cells were cultured in six‐well plates containing 10×10 mm quartz slides for 24 h. Cells were incubated with 100 µM of nanoSABER or Scr nanoprobe for 3 h followed by replacement with fresh media and additional incubation for 30 min. Cells were washed with PBS three times and then fixed with 4 % paraformaldehyde (PFA) for 20 min, resuspended back in PBS, and then imaged using a confocal Raman microscope. […] For each group, three independent experiments were performed, and from each pellet, we recorded Raman spectra from eight different positions. […]

Another assay relates to LNCaP cells. Put plainly: confocal Raman imaging of cells. It is filed as cell-based. Particulars: 100 µM, 3 h, then fresh media 30 min, fixed cells, legumain low-expressing. The protocol: as §1, §2
Another assay concerns RWPE1 cells. Put plainly: confocal Raman imaging of cells. To be noted: 100 µM, 3 h, then fresh media 30 min; fixed cells; RWPE1, normal prostate epithelium. It is filed as cell-based. As for the experimental part:
as §1, §2

The subject of a further assay is DU145 tumors. Put plainly: ex vivo Raman imaging of excised tumor sections with MCR analysis. In kind it is in vivo, NU/J nude mice. As for the experimental part:
Ex vivo Raman imaging was conducted on the tumor excised from the tumor‐bearing mice at 2 h post‐administration of nanoSABER (Figure 6b–d). To distinguish the probe signal from endogenous autofluorescence and Raman‐active molecules in the tissue matrix, multivariate curve resolution (MCR) analysis was performed on the spectral dataset recorded from the Raman‐mapped tumor sections. MCR is designed to tackle such problems by expressing the original data through a bilinear model of pure component meaningful contributions.^[ [43] ^] Tissue sections were divided into five groups: DU145 control, DU145‐nanoSABER, DU145‐Scr, LNCaP control, and LNCaP‐nanoSABER, with the control group representing mice injected with 100 µL of PBS vehicle. Collected Raman spectra were divided into the above‐mentioned classes. The tumor dataset was also supplemented with spectra from the quartz coverslip and a separate class was created to preclude the impact of background spectral features in the ensuing analysis. […] Since we are particularly interested in the wavenumber features in the cell‐silent region (i.e., the nanoSABER‐specific bands in the otherwise biologically silent spectral region), MCR2 serves as the principal differentiator.
To create a readily interpretable two‐dimensional (2D) visualization plot, we plotted MCR2 scores against that of MCR3, which contains primarily tissue‐characteristic and background features (Figure 6c). […] The highest MCR2 and MCR3 scores for the quartz‐only spectra were used as the lower and upper thresholds, respectively, to depict significant contributions from the individual components. […] This is indicative of a 100% specificity of the nanoSABER probe, without secondary non‐specific spectra from any of the other tumor treatment classes in the ROI. Moreover, 15% of all spectra obtained from mice with DU145 tumors treated with the nanoSABER probe were situated within the ROI, which confirms the high penetration efficiency of the nanoprobes. […]

The record followed here is paper PMC10700673, “A Smart Intracellular Self‐Assembling Bioorthogonal Raman Active Nanoprobe for Targeted Tumor Imaging” (Advanced Science, 2023).

As for “Ac‐Arg‐Arg‐Arg‐Arg‐Arg‐Arg‐Ala‐Ala‐Asn‐Cys(StBu)‐Pra‐Lys‐CBT [nanoSABER]”, the “Raman map, alkyne 2120 cm-1 and nitrile 2230 cm-1 signals” value with DU145 cells was “undetectable signal levels at 2230 cm^−1”. Moreover, the “Raman map, alkyne and nitrile signals” value was “signals for both alkyne and nitrile groups from the nanoprobe were observed” in the assay with LNCaP cells; “signals for both alkyne and nitrile groups from the nanoprobe were observed” in the assay with RWPE1 cells. Further, the “average ratio of alkyne to nitrile Raman peak intensity of spectra within the ROI” value with DU145 tumors (DU145 tumors excised 2 h after IV 0.0125 mmol kg-1) is 1.5. In addition, in the assay with DU145 tumors (DU145 tumors excised 2 h after IV 0.0125 mmol kg-1, 12 µm cryosections), the “share of all spectra situated within the ROI” value was found to be 15%. In the assay on DU145 tumors (tumors excised 2 h after IV 0.0125 mmol kg-1, 12 µm cryosections), the “specificity (spectra in the ROI of MCR2 versus MCR3 score plot)” value was determined as 100%.
